# According to patent US20170215422A1, “NOVEL CYCLIC DEPSIPEPTIDE DERIVATIVES AND HARMFUL ORGANISM CONTROL AGENTS COMPRISING THE SAME” (priority 2012, published 2017):
# Key:
# Type in all cases: in vivo
# Musca domestica = assay: Control effect against Musca domestica adults (sucrose solution on swab); conditions: 50 ppm in 40% sucrose solution, 4 days
# Method: A chemical solution of the compound according to the present invention that had been adjusted with a 40% sucrose solution to a concentration of 50 ppm was adsorbed on a swab, and the swab was placed in a vial. Two adults of Musca domestica grown in a room were released, followed by standing in a room at a room temperature of 25° C. […] When two insects were in a dead or anguished state, the test compound was determined to be effective.
# [1] = system: Haemaphysalis longicornis; assay: Tickicidal effect against Haemaphysalis longicornis (capsule on mouse); conditions: treatment of 9.5 μg on mouse body surface; nymphal ticks; 5 days
# Method: A capsule having a diameter of 2 cm and a height of 2 cm was bonded to a surface of a back surface of a mouse. A compound of the present invention (9.5 μg) was dissolved in ethanol, and the solution was dropped on the surface of the body of the […] within the capsule. After thorough drying, ten nymphal ticks of Haemaphysalis longicornis were released, and the upper portion of the capsule was lidded for hermetical closing. The mouse was grown in a cage at 25° C. for 12 hr under light phase conditions. Five days after the release, the capsule was removed, and survival or death of the nymphal ticks and the number of blood sucked individuals were measured, and the death/anguish rate was calculated by the following equation.
# Death/anguish rate (%)={number of dead/anguished insects/(number of survived ticks+number of dead/anguished insects)}×100
# [2] = system: egg of drug-resistant Tetranychus uruticae; assay: Ovicidal effect against egg of drug-resistant Tetranychus uruticae; conditions: for insecticidal effect against a strain having a lowered susceptibility to acequinocyl: summary of test results in words
# Method: <Miticidal Effect Against Two-Spotted Spider Mite (Drug-Resistant Strain)>
# (§1) A leaf disk having a diameter of 2.0 cm was cut out from a kidney bean grown in a pot. The leaf disk was inoculated with seven female adult of drug-resistant Tetranychus uruticae, followed by laying in a thermostatic chamber (25° C.). After the elapse of 24 hr, female adults were removed from the leaf disk. The foliage was treated with a chemical solution adjusted to a 50% aqueous acetone solution (0.05% Tween 20 added) containing a compound of the present invention at a predetermined concentration. The foliage was then air-dried and was allowed to stand in a thermostatic chamber (light period 16 hr-dark period 8 hr) (25° C.). Seven days after the chemical solution treatment, the number of remaining eggs and the number of dead mites were counted, and the ovicidal/miticidal rate was calculated by the following equation.
# (§2) Ovicidal/miticidal rate (%)={(number of remaining eggs+number of dead mites)/(number of remaining eggs+number of dead mites+number of survived insects)}×100
# [3] = system: larvae of Musca domestica; assay: Control effect against larvae of Musca domestica (treated feed); conditions: treatment of 12.5 ppm in feed; 5 days
# Method: A compound of the present invention was applied to a very small amount of DMSO, followed by dissolution in deionized water to prepare a chemical solution. The chemical solution (2 mil) adjusted to a concentration of 12.5 ppm was added to and well mixed with 2 g of a powder prepared by mixing wheat bran, MF feed (ORIENTAL YEAST Co., Ltd.), and dry yeast at a wheat bran:MF feed:dry yeast of 25:5:1 to prepare a feed for larvae of Musca domestica. The feed containing the compound was lightly packed in a 3-ml vial, and eight eggs were released. The mouth of the vial was closed with a meshed lid, and the vial was left to stand at 25° C. The number of larvae was counted five days after the chemical treatment, and the death rate was calculated by the following equation. The test was carried out by replicating each treatment twice.
# Death rate (%)={number of dead larvae/(number of survived larvae+number of dead larvae)}×100
# [4] = system: egg of Tetranychus uruticae (susceptible strain); assay: Ovicidal effect against egg of Tetranychus uruticae (susceptible strain); conditions: foliage treatment of 10 ppm; control agent
# Method: <Miticidal Effect Against Two-Spotted Spider Mite (Susceptible Strain)>
# as §1, with “of” for “of drug-resistant”
# as §2
structure (smiles),measurement,setting,value
CCCCC[C@@H]1OC(=O)[C@H](C)N(C)C(=O)[C@@H](CCCCC)OC(=O)[C@H](C)N(C)C(=O)[C@@H](CCCCC)OC(=O)[C@H](CC(C)C)N(C)C(=O)[C@@H](CCCCC)OC(=O)[C@H](C)N(C)C1=O [Compound 27],insecticidal activity (two adults dead or anguished = effective),Musca domestica,two insects were brought to a dead or anguished state
same,death/anguish rate,[1],not less than 70%
CCCCCC1OC(=O)C(CCC)N(C)C(=O)C(CCCCC)OC(=O)C(CC(C)C)N(C)C(=O)C(CCCCC)OC(=O)C(CC(C)C)N(C)C(=O)C(CCCCC)OC(=O)C(CCC)N(C)C1=O (centres unmarked) [Compound 53],insecticidal effect against a strain having a lowered susceptibility to acequinocyl,[2],high insecticidal effect
CCCCCC1OC(=O)C(CCC)N(C)C(=O)C(CCCCC)OC(=O)C(CCC)N(C)C(=O)C(CCCCC)OC(=O)C(CC(C)C)N(C)C(=O)C(CCCCC)OC(=O)C(CCC)N(C)C1=O (centres unmarked) [Compound 55],insecticidal effect against a strain having a lowered susceptibility to acequinocyl,[2],high insecticidal effect
CCCCCC1OC(=O)C(CC(C)C)N(C)C(=O)C(CCCCC)OC(=O)C(CC(C)C)N(C)C(=O)C(CCCCC)OC(=O)C(CC(C)C)N(C)C(=O)C(CCCCC)OC(=O)C(CCC)N(C)C1=O (centres unmarked) [Compound 56],insecticidal effect against a strain having a lowered susceptibility to acequinocyl,[2],high insecticidal effect
CCCCCC1OC(=O)C(CC(C)C)N(C)C(=O)C(CCCCC)OC(=O)C(CC(C)C)N(C)C(=O)C(CCCCC)OC(=O)C(CCC)N(C)C(=O)C(CCCCC)OC(=O)CN(C)C1=O (centres unmarked) [Compound 57],death rate,[3],100%
"CCCCCCCCCCCCC1=C(OC(C)=O)C(=O)c2ccccc2C1=O [acequinocyl, reference compound]",ovicidal/miticidal rate,"[2]; foliage treatment of 10 ppm, eggs, drug-resistant strain, 7 days",11%
same,ovicial/miticidal rate against egg of Tetranychus uruticae (susceptible strain),[4],71%
